Data reported in patent US20120010075A1 (priority 2009, published 2012).
Read-outs that look alike come from different tables or passages of the source.

Legend:
Phytophthora infestans = assay type: in vivo, Phytophthora infestans on tomato; conditions: applied 24 h before inoculation, assessed 7 days after inoculation
[1] = system: Leptosphaeria nodorum (LEPTNO); experiment: In vitro fungitoxicity of hydrazones with and without copper towards Leptosphaeria nodorum (Example 26); assay type: cell-based; conditions: 72 h at 25° C.; for inhibition of growth at 0.05 µg/mL: Parastagonospora nodorum, 72 h, copper-minus medium, read-out: LEPTNO % Inhn. Minus Copper Observed
[2] = hydrazone 50 ppm + 50 μM CuCl2.2H2O, tomato
[3] = compound 0.05 μg/mL, copper-plus medium (CuCl2.2H2O)
[4] = hydrazone 50 ppm with 50 μM CuCl2.2H2O, tomato late blight
[5] = test compound Concn. 0.05 μg/mL
[6] = copper-plus medium (CuCl2 10 μM), test compound Concn. 0.05 μg/mL

Structure (SMILES) | melting point [°C] | TLB % Control (Phytophthora infestans; [2]) [%] | inhibition of growth at 0.05 µg/mL ([1]; compound 0.05 μg/mL) [%] | LEPTNO % Inhn. Plus Copper Observed [1, 3] [%] | TLB % Control (Phytophthora infestans; [4]) [%] | inhibition of growth at 0.05 µg/mL [1, 5] [%] | LEPTNO % Inhn. Plus Copper Observed [1, 6] [%]
COc1cc(Br)cc(/C=N/NC(=O)c2cc(C)cc(C)c2)c1O [Example 209] | 189 to 193 | 67.3 | 17.6 | 95.9 | – | – | –
COc1ccc(/C(C)=N/NC(=O)c2ccccc2C)c(O)c1 [Example 281] | 170 to 172 | 67.0 | 1.4 | 98.4 | – | – | –
COc1ccc(/C(C)=N/NC(=O)c2ccccc2Br)c(O)c1OC [Example 561] | 195 to 200 | – | – | – | 60.0 | 0 | 92.2
COc1ccc(/C(C)=N/NC(=O)c2cccc(Cl)c2)c(O)c1 [Example 285] | 212 to 214 | 51.0 | 3.4 | 97.5 | – | – | –
O=C(N/N=C/c1cc(Cl)cc(Br)c1O)c1ccc([N+](=O)[O-])cc1 [Example 417] | 237 to 250 | – | – | – | 100.0 | 10.7 | 98.2
C/C(=N\NC(=O)c1ccc(C(F)(F)F)cc1)c1cc(F)cc(F)c1O [Example 581] | 287 to 291 | – | – | – | 93.0 | 13.6 | 98.2
COc1ccc(C(=O)N/N=C(\C)c2cc(Cl)cc(Cl)c2O)cc1 [Example 469] | 226 to 227 | – | – | – | 95.0 | 1 | 97.8
C/C(=N\NC(=O)c1ccc(C)cc1)c1cc(C(F)(F)F)ccc1O [Example 530] | 225 to 229 | – | – | – | 59.0 | 9.8 | 96.2
C/C(=N\NC(=O)c1cccc(C)c1O)c1cc(Cl)cc(Cl)c1O [Example 565] | 278 to 279 | – | – | – | 98.0 | 12.2 | 97.4
Cc1ccc(C(=O)N/N=C/c2cc(C(F)(F)F)cc(Cl)c2O)cc1 [Example 322] | 269 to 271 | – | – | – | 95.0 | 20.9 | 97.9
O=C(N/N=C/c1cc(C(F)(F)F)cc(Cl)c1O)c1cccc(F)c1 [Example 323] | 210 to 212 | – | – | – | 100.0 | 16.1 | 98.1
Cc1cccc(O)c1/C=N/NC(=O)c1ccccc1 [Example 246] | 212 to 213 | 50.9 | 0 | 95.3 | – | – | –
O=C(N/N=C/c1ccc(Cl)cc1O)c1cccc(F)c1 [Example 389] | 218 to 222 | – | – | – | 95.0 | 7.7 | 97.6
O=C(N/N=C/c1cc(Cl)c(Cl)cc1O)c1ccccc1 [Example 240] | 238 to 241 | 74.6 | 0 | 98.1 | – | – | –
Cc1ccc(C(=O)N/N=C/c2c(Cl)ccc(Cl)c2O)cc1 [Example 366] | 267 to 269 | – | – | – | 100.0 | 14.2 | 96.6
Cc1cccc(C(=O)N/N=C/c2ccc(Cl)cc2O)c1 [Example 387] | 201 to 203 | – | – | – | 87.0 | 13.5 | 96.9
O=C(N/N=C/c1cc(Cl)ccc1O)c1ccc(F)cc1 [Example 421] | 234 to 243 | – | – | – | 94.0 | 8.2 | 96.6

Structure (SMILES) | melting point [°C] | TLB % Control (Phytophthora infestans; [2]) [%] | inhibition of growth at 0.05 µg/mL ([1]; compound 0.05 μg/mL) [%] | LEPTNO % Inhn. Plus Copper Observed [1, 3] [%] | TLB % Control (Phytophthora infestans; [4]) [%] | inhibition of growth at 0.05 µg/mL [1, 5] [%] | LEPTNO % Inhn. Plus Copper Observed [1, 6] [%]
O=C(N/N=C/c1c(Cl)ccc(Cl)c1O)c1ccccc1C(F)(F)F [Example 373] | 221 to 222 | – | – | – | 90.0 | 0 | 97.3
C/C(=N\NC(=O)c1ccc(Br)cc1)c1cc(Cl)ccc1O [Example 512] | 269 to 271 | – | – | – | 59.0 | 7.4 | 97.8
O=C(N/N=C/c1c(Cl)ccc(Cl)c1O)c1ccccc1O [Example 372] | 260 to 262 | – | – | – | 98.0 | 15.1 | 97.4
O=C(N/N=C/c1c(O)cccc1Cl)c1ccccc1C(F)(F)F [Example 407] | 222 to 226 | – | – | – | 70.0 | 0 | 92.0
Cc1ccc(C(=O)N/N=C/c2c(C(F)(F)F)ccc(Cl)c2O)cc1 [Example 448] | 216 to 218 | – | – | – | 100.0 | 27.1 | 97.5
CCOc1cccc(C(=O)N/N=C/c2cc(Cl)cc(Cl)c2O)c1 [Example 86] | 207 to 209 | 80.7 | 0.3 | 97.6 | – | – | –
C/C(=N\NC(=O)c1ccc(C(F)(F)F)cc1)c1cc(C(F)(F)F)ccc1O [Example 536] | 228 to 234 | – | – | – | 24.0 | 21.1 | 93.4
O=C(N/N=C/c1cc(C(F)(F)F)cc(Cl)c1O)c1ccc(Cl)cc1 [Example 326] | 208 to 210 | – | – | – | 93.0 | 6.9 | 95.6
C/C(=N\NC(=O)c1cccc(C)c1)c1cccc(Cl)c1O [Example 494] | 164 to 178 | – | – | – | 96.0 | 0 | 97.7
Cc1ccc(C(=O)N/N=C/c2cccc(Cl)c2O)cc1 [Example 424] | 230 to 232 | – | – | – | 100.0 | 22.3 | 97.0
COc1ccc(C(=O)N/N=C/c2cc(Cl)cc(Cl)c2O)c(O)c1 [Example 486] | 267 to 269 | – | – | – | 95.0 | 12.8 | 96.6
C/C(=N\NC(=O)c1ccc(Br)cc1)c1cc(Br)ccc1O [Example 517] | 270 to 275 | – | – | – | 56.0 | 0 | 96.7
COc1ccc(C(=O)N/N=C(\C)c2cccc(OC)c2O)cc1 [Example 464] | 140 to 141 | – | – | – | 93.0 | 6.7 | 94.8
CC/C(=N\NC(=O)c1c(Cl)cccc1Cl)c1ccccc1O [Example 48] | 181 to 184 | 40.0 | 0.3 | 94.6 | – | – | –
C/C(=N\NC(=O)c1ccccc1)c1cc(F)cc(F)c1O [Example 572] | 222 to 225 | – | – | – | 94.0 | 2.5 | 97.4
C/C(=N\NC(=O)c1ccc(Cl)cc1)c1ccc(Cl)cc1O [Example 257] | 246 to 247 | 21.0 | 6 | 94.4 | – | – | –
